The record followed here is patent US12329741B2, “HBV inhibitor and its use” (priority 2019, dated 2025).

Bounds are passed on as bounds.

Series [1] has as its system hepatitis B virus (HBV). Kind of series: Anti-hepatitis B virus activity: HBV DNA in supernatant of HepG2.2.15 cells by qPCR. In kind it is cell-based. Conditions: 192 h, supernatant collected on day 8. The text has this: (§1) In this experiment, real-time fluorescent quantitative PCR (qPCR) method was used to detect the content of HBV DNA in the supernatant of HepG2.2.15 cells to determine the anti-hepatitis B virus activity of the compound in HepG2.2.15 cells, and to detect cell viability impact of the test compound against HepG2.2.15 by Cell-titer Blue method. In the experiment, entecavir (ETV) was used as a reference compound to monitor the quality of the experiment.
On day 1, the cells were planted into a 96-well plate, the compound was added to treat the cells on day 2, a new culture medium containing the compound was replaced on day 5, and the supernatant was collected on day 8 to extract DNA. Quantitative PCR was used to detect the content of HBV DNA. Both the test compound and the control compound were diluted in a series of 3 times with 8 concentration points, and 2 replicate wells were measured in parallel. The final concentration of DMSO in the culture medium is 0.5%.
The calculation formula of the inhibition percentage is as follows: % inh.=(1-HBV copy number of sample/HBV copy number of 0.5% DMSO control)×100
EC50 was analyzed by Graphpad Prism software (four parameter logistic equations).
A general note: Quantitative PCR measures a nucleic acid by following its amplification.

Series [2] can be described thus: Cytotoxicity test (Cell-titer Blue method) in HepG2.2.15 cells. In kind it is cell-based. Conditions: human, six days after treatment, highest concentration tested 100 μM, read-out: HepG2.2.15 cell viability CC50.
From the text: as §1
The compound concentration, plate layout, and compound treatment process are consistent with the antiviral experiments. In six days after the cells were treated with the compound, the cell viability was measured with Cell-titer Blue.
Analyze the data and calculate relative cell viability: Use the following formula to calculate the percentage of cell viability: % Cell viability=(sample fluorescence reading-fluorescence reading of culture medium control)/(fluorescence reading of DMSO control-fluorescence reading of the culture medium control)×100.
Finally, GraphPad Prism software was used to calculate the CC50 value of the compound.

Series [3] in a line: Pharmacokinetics (PK) experiment, intragastric administration in rats. Conditions: for AUC(0-inf) / Cmax / Tmax / half-life / AUC(0-t): male, SD, rat, po, intragastric administration 20 mg/kg, plasma; for AUC(0-t): read-out: AUC0-24. In kind it is in vivo, Male SD rats. As for the experimental part:
Male SD rats weighing 215-343 grams were fasted overnight before the test. The test compound was completely dissolved in 5% of the total volume of DMSO and then diluted with 30% Captisol to 2 mg/mL, and then it was administered by gavage at dosage of 20 mg/kg. In 15 minutes, 30 minutes, 1, 2, 4, 6, 8 and 24 hours after the administration, blood was taken from the end of the tails of rats at about 0.3 ml at each time point. The blood sample was placed in a centrifuge tube containing K2-EDTA, and centrifuged (@3500 rpm, 10 minutes, 4° C.). Take the plasma and store it in an ultra-low temperature refrigerator at −80° C. 50 μL of plasma sample was mixed with 135 μl of acetonitrile (including the internal standard IS), and then vortexed for 30 s, centrifuged at 15000 rpm at 4° C. for 10 min, and 10 μl of supernatant was taken as sample and injected into LC-MS/MS for analysis.

What is called EC50 is the concentration needed to bring the measured effect to its halfway point. High values mean lower potency in that assay, low ones higher potency in that assay. The CC50 is the concentration at which the toxic effect on the cells reaches its halfway point. Broadly, the AUC(0-inf) is total exposure, with the tail of the curve extrapolated. The low end stands for low exposure, the high end for high exposure. Usually Cmax stands for the highest concentration seen after dosing. What is called Tmax is the time at which the peak concentration occurs. Broadly, the half-life is how long it takes for the measured level to halve. A higher half-life goes with slow decline.

As to `Cc1c(C(=O)C(=O)NC(C)(C)C)c(C)n(C)c1C(=O)Nc1ccc2occc2c1` [Compound 52, 1,3,5-Trimethyl-2-amide-N-(benzofuran-5)-4-(2-tert-butylamino-oxalyl)-pyrrole], the EC50 in series [1] was at most 0.05 µM. The half-maximal cytotoxic concentration (CC50) at 6 days in series [2] was over 100 µM. For the same compound, in series [3], the AUC(0-inf) is 17.1 µg·h/mL, the Cmax was determined as 3.67 µg/mL, the Tmax stood at 1 h and the half-life is 2.39 h. For the same compound, the AUC(0-t) in series [3] is 17.1 µg·h/mL.
With `C#CC(C)(C)NC(=O)C(=O)c1c(C)c(C(=O)Nc2ccc3occc3c2)n(C)c1C` [Compound 54, 1,3,5-Trimethyl-2-amide-N-(benzofuran-5-yl)-4-(2-(1,1-dimethylpropynamido)-oxalyl)-pyrrole], the EC50 in series [1] was at most 0.05 µM. For the same compound, the CC50 at 6 days in series [2] is over 100 µM. Moreover, in series [3], the AUC(0-inf) stood at 87.4 µg·h/mL, the Cmax was found to be 9.43 µg/mL, the Tmax was 1.67 h and the half-life was 2.52 h. In addition, the AUC(0-t) in series [3] was determined as 87.2 µg·h/mL.
Regarding `Cc1oc(C(=O)C(=O)NCc2cn(C3CC3)nn2)cc1C(=O)Nc1ccc(F)c(Cl)c1` [Compound 11, 2-Methyl-3-amide-N-(3-chloro-4-fluorophenyl)-5-(2-(1-cyclopropyl-1H-[1,2,3]triazole-4-ylmethylamino)-oxalyl)-furan], in series [3] (oral administration), the “absorption after oral administration” value is “well absorbed” and the blood exposure result is “relatively high”.
As to `C#CCNC(=O)C(=O)c1c(C)c(C(=O)Nc2ccc3c(c2)ncn3C)n(C)c1C` [Compound 72, 1,3,5-Trimethyl-2-amide-N-(1-methyl-1H-benzimidazol-5-yl)-4-(2-propargylamino-oxalyl)-Pyrrole], the EC50 in series [1] lay in the range of 0.5 to 5 µM. The CC50 at 6 days in series [2] is over 100 µM.
In turn, `C#CC(C)(C)NC(=O)C(=O)c1sc(C)c(C(=O)Nc2ccc(F)c(Cl)c2)c1C` [Compound 38, 2,4-Dimethyl-3-amide-N-(3-chloro-4-fluorophenyl)-5-(2-(1,1-dimethylpropynamido)-oxalyl)-thiophene] yielded an EC50 in series [1] of at most 0.05 µM. Besides, in series [2], the CC50 at 6 days was over 100 µM.
The like results for `C#CCNC(=O)C(=O)c1c(C)c(C(=O)Nc2ccc3ccccc3c2)n(C)c1C` [Compound 66, 1,3,5-Trimethyl-2-amide-N-(naphthalen-2-yl)-4-(2-propargylamino-oxalyl)-pyrrole] were, in that order, 0.05 to 0.5 µM and over 100 µM.
`Cc1sc(C(=O)C(=O)NC(C)(C)C)cc1C(=O)Nc1cc(F)c(F)c(F)c1` [Compound 35, 2-Methyl-3-amide-N-(3,4,5-trifluorophenyl)-5-(2-tert-butylamino-oxalyl)-thiophene] displayed an EC50 in series [1] of 0.5 to 5 µM. In addition, in series [2], the CC50 at 6 days is over 100 µM.
In the same order, the values of `C#CCNC(=O)C(=O)c1cc(C(=O)Nc2ccc(F)c(Cl)c2)c(C)s1` [Compound 30, 2-Methyl-3-amide-N-(3-chloro-4-fluorophenyl)-5-(2-propargylamino-oxalyl)-thiophene] are 0.5 to 5 µM and over 100 µM.
In the same order, the values of `Cc1oc(C(=O)C(=O)NC(C)(C)C)cc1C(=O)Nc1cc(F)c(F)c(F)c1` [Compound 20, 2-Methyl-3-amide-N-(3,4,5-trifluorophenyl)-5-(2-tert-butylamino-oxalyl)-furan] are 0.05 to 0.5 µM and over 100 µM.
The like results for `Cc1c(C(=O)C(=O)Nc2nccs2)c(C)n(C)c1C(=O)Nc1ccc2occc2c1` [Compound 59, 1,3,5-Trimethyl-2-amide-N-(benzofuran-5-yl)-4-(2-(thiazol-2-amino)-oxalyl)-pyrrole] were, in that order, at most 0.05 µM and over 100 µM.
For `Cc1oc(C(=O)C(=O)NC(C)(C)C)cc1C(=O)Nc1ccc(F)c(F)c1` [Compound 19, 2-Methyl-3-amide-N-(3,4-difluorophenyl)-5-(2-tert-butylamino-oxalyl)-furan], in series [1], the EC50 lay within 0.5 to 5 µM. Further, the CC50 at 6 days in series [2] was over 100 µM.
For the compound `Cc1c(C(=O)C(=O)NC(C)(C)C)coc1C(=O)Nc1ccc(F)c(Cl)c1` [Compound 83, 2-Amide-N-(3-chloro-4-fluoro-phenyl)-3-methyl-4-(2-tert-butylamino-oxalyl)-furan], the EC50 in series [1] is over 50 µM. Moreover, the cytotoxic concentration (CC50) at 6 days in series [2] is over 100 µM.
In the same order, the values of `Cc1sc(C(=O)C(=O)NC(C)(C)C)cc1C(=O)Nc1ccc(F)c(F)c1` [Compound 34, 2-Methyl-3-amide-N-(3,4-difluorophenyl)-5-(2-tert-butylamino-oxalyl)-thiophene] are 0.05 to 0.5 µM and over 100 µM.
In series [1], `Cc1oc(C(=O)C(=O)NCC#Cc2ccccc2)cc1C(=O)Nc1ccc(F)c(Cl)c1` [Compound 7, 2-Methyl-3-amide-N-(3-chloro-4-fluorophenyl)-5-(2-(3-phenyl-2-eynylpropylamino)-oxalyl)-furan] returned an EC50 of over 50 µM. The CC50 at 6 days in series [2] is 29 µM.
The like results for `Cc1oc(C(=O)C(=O)NC(C)(C)C)cc1C(=O)Nc1ccc(C(F)(F)F)cc1` [Compound 22, 2-Methyl-3-amide-N-(4-trifluoromethylphenyl)-5-(2-tert-butylamino-oxalyl)-furan] were, in that order, over 50 µM and over 100 µM.
The compound `C#Cc1cc(NC(=O)c2cc(C(=O)C(=O)NC(C)(C)C)oc2C)ccc1F` [Compound 27, 2-Methyl-3-amide-N-(3-alkynyl-4-fluorophenyl)-5-(2-tert-butylamino-oxalyI)-furan] gave an EC50 in series [1] of 5 to 50 µM. Besides, the CC50 at 6 days in series [2] was over 100 µM.
The like results for `C#CCNC(=O)C(=O)c1c(C)c(C(=O)Nc2ccc3c(ccn3C)c2)n(C)c1C` [Compound 64, 1,3,5-Trimethyl-2-amide-N-(1-methyl-1H-indol-5-yl)-4-(2-propargylamino-oxalyl)-pyrrole] were, in that order, 0.5 to 5 µM and over 100 µM.
In the same order, the values of `Cc1c(C(=O)C(=O)NC(C)(C)c2c[nH]nn2)c(C)n(C)c1C(=O)Nc1ccc2occc2c1` [Compound 78, 1,3,5-trimethyl-2-amide-N-(benzofuran-5-yl)-4-(2-(2-(1H-1,2,3-triazole-4-yl)-2-propylamino)-oxalyl)-pyrrole] are at most 0.05 µM and over 100 µM.
The like results for `C#CCNC(=O)C(=O)c1c(C)c(C(=O)Nc2ccc3oncc3c2)n(C)c1C` [Compound 74, 1,3,5-Trimethyl-2-amide-N-(benzisoxazol-5-yl)-4-(2-propargylamino-oxalyl)-pyrrole] were, in that order, 0.5 to 5 µM and over 100 µM.
`Cc1c(C(=O)C(=O)NC2(c3c[nH]nn3)CC(F)(F)C2)c(C)n(C)c1C(=O)Nc1ccc2occc2c1` [Compound 77, 1,3,5-trimethyl-2-amide-N-(benzofuran-5-yl)-4-(2-(3,3-difluoro-1-(1H-1,2,3-Triazol-4-yl)cyclobutane-1-amino)-oxalyl)-pyrrole] registered a concentration giving a half-maximal response (EC50) in series [1] of at most 0.05 µM. Besides, the CC50 at 6 days in series [2] is over 100 µM.
In the same order, the values of `CC(C)(C)NC(=O)C(=O)c1nc(C(=O)Nc2ccc(F)c(Cl)c2)cs1` [Compound 44, 2-(2-Tert-Butylamino-oxalyl)-4-amide-N-(3-chloro-4-fluoro-phenyl)-thiazole] are over 50 µM and 28 µM.
In the same order, the values of `Cc1c(C(=O)C(=O)NC(C)C(F)(F)F)c(C)n(C)c1C(=O)Nc1ccc2occc2c1` (stereo in doubt) [Compound 56, 1,3,5-Trimethyl-2-amide-N-(benzofuran-5-yl)-4-(2-((S)-1,1,1-trifluoropropane-2-Amino)-oxalyl)-pyrrole] are at most 0.05 µM and over 100 µM.
The like results for `C#CC(C)(C)NC(=O)C(=O)c1cc(C(=O)Nc2ccc(F)c(Cl)c2)c(C)o1` [Compound 4, 2-Methyl-3-amide-N-(3-chloro-4-fluorophenyl)-5-(2-(1,1-dimethylpropynamido)-oxalyl)-furan] were, in that order, 0.5 to 5 µM and over 100 µM.
